This passage reports IC50, Change and ED50 results from ChEMBL document CHEMBL1135872, “Oxyaniliniums as acetylcholinesterase inhibitors for the reversal of neuromuscular block” (Bioorg Med Chem Lett, 2002).

Test [1] is filed under the species Cavia porcellus. Put plainly: In vitro potency in reversing vecuronium-induced block in guinea pig hemidiaphram. The test is classed as functional.
The target of test [2] is Acetylcholinesterase (Homo sapiens, UniProt P22303). Put plainly: In vitro inhibitory activity against human recombinant AChE.
Chain of Acetylcholinesterase (P22303 whole entry): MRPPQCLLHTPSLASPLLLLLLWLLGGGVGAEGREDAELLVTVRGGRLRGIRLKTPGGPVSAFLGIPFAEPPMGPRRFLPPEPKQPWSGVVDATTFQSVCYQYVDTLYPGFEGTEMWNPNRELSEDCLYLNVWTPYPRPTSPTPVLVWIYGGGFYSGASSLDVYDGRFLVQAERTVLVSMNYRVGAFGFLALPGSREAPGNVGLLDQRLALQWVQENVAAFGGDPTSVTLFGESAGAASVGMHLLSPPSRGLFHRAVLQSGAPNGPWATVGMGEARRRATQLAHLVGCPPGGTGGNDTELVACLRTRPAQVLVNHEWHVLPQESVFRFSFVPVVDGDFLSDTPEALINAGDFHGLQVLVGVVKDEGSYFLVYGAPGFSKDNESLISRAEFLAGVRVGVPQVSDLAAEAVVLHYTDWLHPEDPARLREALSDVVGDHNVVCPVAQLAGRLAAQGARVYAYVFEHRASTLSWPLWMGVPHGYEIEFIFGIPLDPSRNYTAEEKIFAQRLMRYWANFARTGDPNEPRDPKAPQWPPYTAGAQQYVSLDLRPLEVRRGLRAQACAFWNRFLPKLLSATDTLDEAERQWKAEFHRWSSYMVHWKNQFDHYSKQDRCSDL
In test [3] the test system is Felis catus. Put plainly: Tested for effect on autonomic vagal membrane at dose of 1.28 umol/kg in cat. It counts as functional.
Test [4] is filed under the species Felis catus. Put plainly: Effective dose required to reverse vecuronium-induced neuromuscular block in cat. The test is classed as functional.
The test system of test [5] is Felis catus. Put plainly: Tested for change in LV pressure at dose of 1.28 umol/kg in cat. The test is classed as functional.
For test [6], the system named is Felis catus. Put plainly: Tested for change in arterial pressure at dose of 1.28 umol/kg in cat. The test is classed as functional, Artery.
Test [7] relates to Felis catus. Put plainly: Tested for change in heart rate at dose of 1.28 umol/kg in cat. It counts as functional.
The subject of test [8] is Felis catus. Put plainly: Tested for effect on nictitating membrane at dose of 1.28 umol/kg in cat. It counts as functional.
Test [9] relates to Felis catus. Put plainly: Tested for change in LV dp/dt at dose of 1.28 umol/kg in cat. It counts as functional.
In test [10] the test system is Felis catus. Put plainly: Tested for change in LV pressure at dose of 2.56 umol/kg in cat. The test is classed as functional.
Test [11] relates to Felis catus. Put plainly: Tested for change in heart rate at dose of 2.56 umol/kg in cat. The test is classed as functional.
For test [12], the system named is Felis catus. Put plainly: Tested for change in arterial pressure at dose of 2.56 umol/kg in cat. The test is classed as functional, Artery.
Test [13] deals with Felis catus. Put plainly: Tested for effect on autonomic vagal membrane at dose of 2.56 umol/kg in cat. It counts as functional.
In test [14] the test system is Felis catus. Put plainly: Tested for change in LV dp/dt at dose of 2.56 umol/kg in cat. It counts as functional.
In test [15] the test system is Felis catus. Put plainly: Tested for effect on nictitating membrane at dose of 2.56 umol/kg in cat. It counts as functional.
The test system of test [16] is Felis catus. Put plainly: Tested for change in arterial pressure at dose of 2.1 umol/kg in cat. The test is classed as functional, Artery.
Test [17] relates to Felis catus. Put plainly: Tested for change in heart rate at dose of 2.1 umol/kg in cat. The test is classed as functional.
In test [18] the test system is Felis catus. Put plainly: Tested for effect on nictitating membrane at dose of 2.1 umol/kg in cat. The test is classed as functional.
The subject of test [19] is Felis catus. Put plainly: Tested for effect on autonomic vagal membrane at dose of 2.1 umol/kg in cat. It counts as functional.
Test [20] deals with Felis catus. Put plainly: Tested for change in LV dp/dt at dose of 2.1 umol/kg in cat. It counts as functional.
The test system of test [21] is Felis catus. Put plainly: Tested for change in LV pressure at dose of 2.1 umol/kg in cat. It counts as functional.
Test [22] deals with Felis catus. Put plainly: Tested for effect on nictitating membrane at dose of 1.026 umol/kg in cat. It counts as functional.
The subject of test [23] is Felis catus. Put plainly: Tested for change in LV pressure at dose of 1.026 umol/kg in cat. The test is classed as functional.
The test system of test [24] is Felis catus. Put plainly: Tested for change in heart rate at dose of 1.026 umol/kg in cat. It counts as functional.
Test [25] deals with Felis catus. Put plainly: Tested for change in LV dp/dt at dose of 1.026 umol/kg in cat. The test is classed as functional.
Test [26] relates to Felis catus. Put plainly: Tested for change in arterial pressure at dose of 1.026 umol/kg in cat. It counts as functional, Artery.
Test [27] has as its system Felis catus. Put plainly: Tested for effect on autonomic vagal membrane at dose of 1.026 umol/kg in cat. It counts as functional.
Test [28] relates to Felis catus. Put plainly: Tested for change in LV dp/dt at dose of 0.076 umol/kg in cat. It counts as functional.
The subject of test [29] is Felis catus. Put plainly: Tested for change in arterial pressure at dose of 0.076 umol/kg in cat. It counts as functional, Artery.
The subject of test [30] is Felis catus. Put plainly: Tested for change in heart rate at dose of 0.076 umol/kg in cat. It counts as functional.
Test [31] has as its system Felis catus. Put plainly: Tested for effect on autonomic vagal membrane at dose of 0.076 umol/kg in cat. It counts as functional.
The subject of test [32] is Felis catus. Put plainly: Tested for change in LV pressure at dose of 0.076 umol/kg in cat. The test is classed as functional.
Test [33] relates to Felis catus. Put plainly: Tested for effect on nictitating membrane at dose of 0.076 umol/kg in cat. It counts as functional.

As a reminder, the IC50 is the concentration that gives 50% inhibition. `C[N+](C)(Cc1ccccc1)c1ccccc1O`: the IC50 was more than 3 µM in test [1] and more than 10 µM in test [2].

As for `COc1cccc(C[N+](C)(C)Cc2ccccc2)c1`, the half-maximal inhibitory concentration (IC50) in test [2] is more than 10 µM.

For the compound `C=CC[N+](C)(C)c1cccc(OC)c1`, the half-inhibitory concentration (IC50) in test [1] was more than 3 µM; in [2] it was more than 10 µM.

As for `COc1cccc([N+](C)(C)Cc2ccccc2)c1`, the half-inhibitory concentration (IC50) was more than 3 µM in test [1] and more than 10 µM in test [2].

For the compound `C=C(C)C[N+](C)(C)c1ccccc1OC`, the half-maximal inhibitory concentration (IC50) in test [1] was more than 3 µM; in test [2], more than 10 µM.

In the case of `COc1ccc(C(=O)CCc2cccc([N+](C)(C)C)c2)cc1OC`, the half-maximal inhibitory concentration (IC50) in test [2] was more than 10 µM.

On to `C=C(C)C[N+](C)(C)c1ccc(O)cc1`, for which the IC50 in test [1] was more than 3 µM; in test [2], more than 10 µM.

Take `C=CC[N+](C)(C)Cc1cccc(O)c1`: the IC50 in test [1] is more than 3 µM; in test [2] it was more than 10 µM.

On to `C=C(C)C[N+](C)(C)c1ccccc1O`, for which the IC50 in test [1] is more than 3 µM; in test [2], more than 10 µM.

Take `C[N+](C)(Cc1ccccc1)c1ccc(O)cc1`: the concentration for half-maximal inhibition (IC50) in [1] is more than 3 µM; in test [2], more than 10 µM.

On to `CC(=O)Oc1ccccc1[N+](C)(C)Cc1ccccc1`, for which the 50% inhibitory concentration (IC50) in [1] was more than 3 µM; in [2] it was more than 10 µM.

Take `COc1ccc(C(=O)CCc2ccc([N+](C)(C)Cc3ccccc3)cc2)cc1OC`: the IC50 in test [1] is 4.11 µM; in test [2] it was 1.3 µM.

With `COc1cccc(C[N+](C)(C)C)c1`, in [2], the 50% inhibitory concentration (IC50) is more than 10 µM.

On to `C=C(C)C[N+](C)(C)c1cccc(OC)c1`, for which the values for the half-maximal inhibitory concentration (IC50) in test [1] and in test [2] were more than 3 µM and more than 10 µM, respectively.

Regarding `COc1ccc([N+](C)(C)Cc2ccccc2)cc1`, the IC50 was more than 3 µM in test [1] and more than 10 µM in test [2].

Turning to `C=CC[N+](C)(C)c1ccc(OC(C)=O)cc1`, the values for the IC50 in test [1] and in test [2] were more than 3 µM and more than 10 µM, respectively.

Turning to `C=CC[N+](C)(C)c1ccc(OC)cc1`, the IC50 in test [1] is more than 3 µM; in test [2], more than 10 µM.

With `C[N+](C)(C)Cc1cccc(O)c1`, the IC50 in test [1] was more than 3 µM; in test [2], more than 10 µM.

Consider `CC(=O)Oc1cccc([N+](C)(C)Cc2ccccc2)c1`, for which the half-maximal inhibitory concentration (IC50) in test [1] was more than 3 µM; in test [2], more than 10 µM.

As usually defined, the ED50 is the dose that gives a 50% effect, or the effect in half of the subjects. With `C=CC[N+](C)(C)c1ccccc1OC.[Br-]`, the IC50 in [1] is 2.89 µM; in test [2], 1 µM. Besides, the Change in [3] is 41%; in [5] it was 9%; in test [6], 24%; in test [7] it was 2%; in [8], 2%; in test [9] it was 9%. In [4], this compound displayed a 50% effective dose (ED50) of 0.22 µmol/kg.

Consider `C=CC[N+](C)(C)c1ccc(O)cc1`, for which the IC50 is more than 3 µM in test [1] and more than 10 µM in test [2].

On to `C=CC[N+](C)(C)c1ccc(OCC(=O)c2ccc(OC)c(OC)c2)cc1`, for which the results for the IC50 in test [1] and in test [2] were 0.5 µM and 10 µM, respectively.

Regarding `COc1ccc(C(=O)CCc2cccc([N+](C)(C)Cc3ccccc3)c2)cc1OC`, the 50% inhibitory concentration (IC50) was more than 3 µM in test [1] and 1.04 µM in test [2].

Consider `C=CC[N+](C)(C)c1cccc(OC(C)=O)c1`, for which the values for the 50% inhibitory concentration (IC50) in test [1] and in [2] were 3.87 µM and 1 µM, respectively.

As to `C=CC[N+](C)(C)Cc1cccc(OC)c1`, the values for the IC50 in [1] and in test [2] were more than 3 µM and more than 10 µM, respectively.

`COc1ccc(C(=O)CCc2ccc([N+](C)(C)C)cc2)cc1OC`: the IC50 amounted to 2 µM in test [1] and 3 µM in [2].

With `COc1ccc(C(=O)COc2cccc([N+](C)(C)Cc3ccccc3)c2)cc1OC.[Br-]`, the Change was 63% in test [10]; 8% in test [11]; 56% in test [12]; 5% in test [13]; 82% in test [14]; 34% in test [15]. For the same compound, the IC50 in [1] is 1.69 µM; in [2] it was 0.33 µM.

As to `COc1ccc(C(=O)COc2ccc([N+](C)(C)C)cc2)cc1OC`, the IC50 in [1] is 9.8 µM; in [2] it was 10 µM.

As to `C=CC[N+](C)(C)c1ccccc1O.[Br-]`, the Change is 2% in [16]; 1% in test [17]; 5% in test [18]; 5% in test [19]; 8% in [20]; 12% in test [21]. For the same compound, the concentration for half-maximal inhibition (IC50) in test [1] was found to be 74 µM; in test [2], 1.85 µM. Further, it took a dose of 0.5 µmol/kg to reach the 50% effect level in test [4] (ED50).

As for `C[N+](C)(Cc1ccccc1)c1cccc(O)c1`, the concentration for half-maximal inhibition (IC50) is more than 3 µM in test [1] and more than 10 µM in test [2].

As for `C=C(C)C[N+](C)(C)c1cccc(O)c1`, the values for the IC50 in [1] and in [2] were more than 3 µM and more than 10 µM, respectively.

In the case of `C[N+](C)(Cc1ccccc1)Cc1cccc(O)c1`, the IC50 in [2] is more than 10 µM.

Take `C=CC[N+](C)(C)c1cccc(O)c1`: the results for the concentration for half-maximal inhibition (IC50) in test [1] and in test [2] were 13 µM and 3 µM, respectively.

For the compound `C=CCC[N+](C)(C)c1ccccc1O`, the IC50 in [1] is more than 10 µM; in [2], 10 µM.

For `COc1ccccc1[N+](C)(C)Cc1ccccc1`, the half-maximal inhibitory concentration (IC50) is more than 3 µM in [1] and more than 10 µM in test [2].

Take `COc1ccc(C(=O)COc2ccc([N+](C)(C)Cc3ccccc3)cc2)cc1OC`: the IC50 turned out to be 19.4 µM in [1] and 10 µM in test [2].

Turning to `COc1ccc(C(=O)COc2cccc([N+](C)(C)C)c2)cc1OC`, the concentration for half-maximal inhibition (IC50) in test [1] was 7.08 µM; in test [2], 10 µM.

As for `CC(=O)Oc1ccc([N+](C)(C)Cc2ccccc2)cc1`, the IC50 in [1] is more than 3 µM; in test [2] it was more than 10 µM.

Regarding `CC[N+](C)(C)c1cccc(O)c1.[Br-]` [EDROPHONIUM BROMIDE], the Change in test [22] is 7%; in test [23], 23%; in [24], 2%; in test [25] it was 20%; in test [26] it was 22%; in test [27] it was -67%. Besides, the half-inhibitory concentration (IC50) in test [1] stood at 2.77 µM.

Take `CN(C)C(=O)Oc1cccc([N+](C)(C)C)c1.[Br-]` [NEOSTIGMINE BROMIDE]: the Change in test [28] was 12%; in test [29] it was 22%; in test [30], 4%; in [31], 62%; in test [32], -14%; in test [33], 6%. In addition, the half-inhibitory concentration (IC50) in test [1] amounted to 0.028 µM.
